{"source": "patent US20240293413A1", "about": "“COMPOUND AND METHOD FOR TREATING CHEMOTHERAPY-RELATED GASTROINTESTINAL SIDE EFFECTS” (ONQUALITY PHARMACEUTICALS CHINA LTD., priority 2021, published 2024)", "type_in_all_cases": "in vivo", "key": {"[1]": {"system": "diarrhea caused by a chemotherapeutic agent in Balb/c mice", "test": "Examples 382-405 (Table 7): various administration modes of the CDK inhibitor, relief of diarrhea caused by a chemotherapeutic agent", "details": "cycle 8 days", "summary_of_the_method": "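Balb/c mice (10 per group) received a CDK inhibitor by oral gavage, intraperitoneal, intramuscular or topical (shaved abdomen) dosing, followed by a chemotherapeutic agent. Vehicle and chemotherapy-only groups served as controls. Diarrhea was graded daily.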"}, "[2]": {"system": "constipation caused by the continuous administration of a chemotherapeutic agent in Balb/c mice", "test": "Examples 470-481 (Table 10): oral CDK inhibitor, constipation caused by continuous administration of a chemotherapeutic agent", "details": "Fluorouracil (5-Fu) intraperitoneal injection 100 mg/kg once a day", "from_the_text": "Balb/c mice were fed for 1 week, and then divided into groups. The experiment was divided into a control group, a chemotherapeutic agent group, and a CDK inhibitor group, each of which comprised 10 mice, to perform the administration experiment, for which the administration dosage, mode, time and frequency were shown in Table 10. The control group: being intragastrically administered with the same solvent as that used in the CDK inhibitor group (the time was shown in Table 10), and then being injected/intragastrically administered with the same solvent as that used in the chemotherapeutic agent group (the administration mode was shown in Table 10): the chemotherapeutic agent group: being intragastrically administered with the same solvent as that used in the CDK inhibitor group (the time was shown in Table 10), and then being injected/intragastrically administered with the chemotherapeutic agent (the type, administration mode, dosage and duration time were shown in Table 10): the CDK inhibitor group: being intragastrically administered with the CDK inhibitor (the time was shown in Table 10), and then being administered with the chemotherapeutic agent (the type, administration mode, dosage and duration time were shown in Table 10).\nThe feces reduction rate was calculated with reference to the method of Ji Eun Kim (Lab Anim Res. 2016 December: 32(4): 231-240.). Feces reduction rate (%)=(the control group−the chemotherapeutic agent group or the CDK inhibitor group)/the control group*100%\nIt is regarded as effective remission when the feces reduction rate of mice in the CDK inhibitor group is reduced compared with that in the chemotherapeutic agent group.\nThe feces amount of mice within 3 hours was observed and recorded every day. At the end of the experiment, the number of mice in the CDK inhibitor group whose feces reduction rate was lower than that of mice in the chemotherapeutic agent group was recorded. Table 10 lists various animal experiment combinations of chemotherapeutic agents and CDK inhibitors, as well as the corresponding experimental results."}, "[3]": {"system": "Chemotherapeutic agent-caused diarrhea models of Balb/c mice", "test": "Examples 1-229 (Table 3): oral CDK inhibitor, relief of diarrhea caused by a chemotherapeutic agent;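 further: percent of treated mice whose diarrhea grade fell below chemotherapy-group average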"}}}
{"smiles": "CC(=O)c1c(C)c2cnc(Nc3ccc(N4CCNCC4)cn3)nc2n(C2CCCC2)c1=O", "note": "[Palbociclib]", "values": [{"measurement": "Relative remission rate of other administration mode", "setting": "[1]; Example 382, Docetaxel (DTX) intraperitoneal injection 10 mg/kg single, CDK inhibitor intraperitoneal injection 150 mg/kg single, 0.5 h before", "value": 10, "unit": "%"}, {"measurement": "Relative remission rate of oral administration", "setting": "[1]; Example 382, Docetaxel (DTX) intraperitoneal injection 10 mg/kg single, CDK inhibitor oral 150 mg/kg single, 0.5 h before", "value": 40, "unit": "%"}, {"measurement": "Relative remission rate of other administration mode", "setting": "[1]; Example 383, Docetaxel (DTX) intraperitoneal injection 10 mg/kg single, CDK inhibitor intraperitoneal injection 150 mg/kg single, 4 h before", "value": 10, "unit": "%"}, {"measurement": "Relative remission rate of oral administration", "setting": "[1]; Example 383, Docetaxel (DTX) intraperitoneal injection 10 mg/kg single, CDK inhibitor oral 150 mg/kg single, 4 h before", "value": 40, "unit": "%"}, {"measurement": "Relative remission rate of other administration mode", "setting": "[1]; Example 384, Docetaxel (DTX) intraperitoneal injection 10 mg/kg single, CDK inhibitor intraperitoneal injection 150 mg/kg single, 8 h before", "value": 10, "unit": "%"}, {"measurement": "Relative remission rate of oral administration", "setting": "[1]; Example 384, Docetaxel (DTX) intraperitoneal injection 10 mg/kg single, CDK inhibitor oral 150 mg/kg single, 8 h before", "value": 50, "unit": "%"}, {"measurement": "Relative remission rate of other administration mode", "setting": "[1]; Example 385, Docetaxel (DTX) intraperitoneal injection 10 mg/kg single, CDK inhibitor intraperitoneal injection 150 mg/kg single, 12 h before", "value": 20, "unit": "%"}, {"measurement": "Relative remission rate of oral administration", "setting": "[1]; Example 385, Docetaxel (DTX) intraperitoneal injection 10 mg/kg single, CDK inhibitor oral 150 mg/kg single, 12 h before", "value": 70, "unit": "%"}, {"measurement": "Relative remission rate of other administration mode", "setting": "[1]; Example 386, Docetaxel (DTX) intraperitoneal injection 10 mg/kg single, CDK inhibitor intraperitoneal injection 150 mg/kg single, 24 h before", "value": 10, "unit": "%"}, {"measurement": "Relative remission rate of oral administration", "setting": "[1]; Example 386, Docetaxel (DTX) intraperitoneal injection 10 mg/kg single, CDK inhibitor oral 150 mg/kg single, 24 h before", "value": 50, "unit": "%"}, {"measurement": "Relative remission rate of other administration mode", "setting": "[1]; Example 403, Gemcitabine (GEM) intravenous injection 120 mg/kg single, CDK inhibitor intravenous injection 200 mg/kg single, 12 h before", "value": 20, "unit": "%"}, {"measurement": "Relative remission rate of oral administration", "setting": "[1]; Example 403, Gemcitabine (GEM) intravenous injection 120 mg/kg single, CDK inhibitor oral 200 mg/kg single, 12 h before", "value": 60, "unit": "%"}, {"measurement": "Remission rate", "setting": "[2]; Examples 470-473 (one value given; 2 h, 4 h, 6 h, 8 h before), for 3 days, CDK inhibitor oral 150 mg/kg once a day, for 3 days, cycle 10 days", "value": 40, "unit": "%"}, {"measurement": "Remission rate", "setting": "[2]; Examples 474-477 (one value given; 2 h, 4 h, 6 h, 8 h before), for 5 days, CDK inhibitor oral 125 mg/kg once a day, for 5 days, cycle 9 days", "value": 50, "unit": "%"}, {"measurement": "Remission rate", "setting": "[2]; Examples 478-481 (one value given; 2 h, 4 h, 6 h, 8 h before), for 7 days, CDK inhibitor oral 125 mg/kg once a day, for 7 days, cycle 10 days", "value": 10, "unit": "%"}, {"measurement": "Relative remission rate (%)", "setting": "[3]; Example 1, Fluorouracil (5-Fu) intraperitoneal injection 125 mg/kg single, CDK inhibitor oral 150 mg/kg single 0.5 h before, cycle 10 days", "value": 20, "unit": "%"}, {"measurement": "Relative remission rate (%)", "setting": "[3]; Example 2, Fluorouracil (5-Fu) intraperitoneal injection 125 mg/kg single, CDK inhibitor oral 150 mg/kg single 1 h before, cycle 10 days", "value": 20, "unit": "%"}, {"measurement": "Relative remission rate (%)", "setting": "[3]; Example 3, Fluorouracil (5-Fu) intraperitoneal injection 125 mg/kg single, CDK inhibitor oral 150 mg/kg single 2 h before, cycle 10 days", "value": 30, "unit": "%"}, {"measurement": "Relative remission rate (%)", "setting": "[3]; Example 4, Fluorouracil (5-Fu) intraperitoneal injection 125 mg/kg single, CDK inhibitor oral 150 mg/kg single 3 h before, cycle 10 days", "value": 40, "unit": "%"}, {"measurement": "Relative remission rate (%)", "setting": "[3]; Example 5, Fluorouracil (5-Fu) intraperitoneal injection 125 mg/kg single, CDK inhibitor oral 150 mg/kg single 4 h before, cycle 10 days", "value": 40, "unit": "%"}, {"measurement": "Relative remission rate (%)", "setting": "[3]; Example 6, Fluorouracil (5-Fu) intraperitoneal injection 125 mg/kg single, CDK inhibitor oral 150 mg/kg single 5 h before, cycle 10 days", "value": 50, "unit": "%"}, {"measurement": "Relative remission rate (%)", "setting": "[3]; Example 7, Fluorouracil (5-Fu) intraperitoneal injection 125 mg/kg single, CDK inhibitor oral 150 mg/kg single 6 h before, cycle 10 days", "value": 50, "unit": "%"}, {"measurement": "Relative remission rate (%)", "setting": "[3]; Example 8, Fluorouracil (5-Fu) intraperitoneal injection 125 mg/kg single, CDK inhibitor oral 150 mg/kg single 7 h before, cycle 10 days", "value": 60, "unit": "%"}, {"measurement": "Relative remission rate (%)", "setting": "[3]; Example 9, Fluorouracil (5-Fu) intraperitoneal injection 125 mg/kg single, CDK inhibitor oral 150 mg/kg single 8 h before, cycle 10 days", "value": 60, "unit": "%"}, {"measurement": "Relative remission rate (%)", "setting": "[3]; Example 10, Fluorouracil (5-Fu) intraperitoneal injection 125 mg/kg single, CDK inhibitor oral 150 mg/kg single 9 h before, cycle 10 days", "value": 50, "unit": "%"}, {"measurement": "Relative remission rate (%)", "setting": "[3]; Example 11, Fluorouracil (5-Fu) intraperitoneal injection 125 mg/kg single, CDK inhibitor oral 150 mg/kg single 10 h before, cycle 10 days", "value": 60, "unit": "%"}, {"measurement": "Relative remission rate (%)", "setting": "[3]; Example 12, Fluorouracil (5-Fu) intraperitoneal injection 125 mg/kg single, CDK inhibitor oral 150 mg/kg single 11 h before, cycle 10 days", "value": 70, "unit": "%"}, {"measurement": "Relative remission rate (%)", "setting": "[3]; Example 13, Fluorouracil (5-Fu) intraperitoneal injection 125 mg/kg single, CDK inhibitor oral 150 mg/kg single 12 h before, cycle 10 days", "value": 80, "unit": "%"}, {"measurement": "Relative remission rate (%)", "setting": "[3]; Example 14, Fluorouracil (5-Fu) intraperitoneal injection 125 mg/kg single, CDK inhibitor oral 12.5 mg/kg single 13 h before, cycle 10 days", "value": 40, "unit": "%"}, {"measurement": "Relative remission rate (%)", "setting": "[3]; Example 15, Fluorouracil (5-Fu) intraperitoneal injection 125 mg/kg single, CDK inhibitor oral 25 mg/kg single 13 h before, cycle 10 days", "value": 80, "unit": "%"}, {"measurement": "Relative remission rate (%)", "setting": "[3]; Example 16, Fluorouracil (5-Fu) intraperitoneal injection 125 mg/kg single, CDK inhibitor oral 50 mg/kg single 13 h before, cycle 10 days", "value": 60, "unit": "%"}, {"measurement": "Relative remission rate (%)", "setting": "[3]; Example 17, Fluorouracil (5-Fu) intraperitoneal injection 125 mg/kg single, CDK inhibitor oral 100 mg/kg single 13 h before, cycle 10 days", "value": 80, "unit": "%"}, {"measurement": "Relative remission rate (%)", "setting": "[3]; Example 18, Fluorouracil (5-Fu) intraperitoneal injection 125 mg/kg single, CDK inhibitor oral 150 mg/kg single 13 h before, cycle 10 days", "value": 80, "unit": "%"}, {"measurement": "Relative remission rate (%)", "setting": "[3]; Example 19, Fluorouracil (5-Fu) intraperitoneal injection 125 mg/kg single, CDK inhibitor oral 250 mg/kg single 13 h before, cycle 10 days", "value": 60, "unit": "%"}, {"measurement": "Relative remission rate (%)", "setting": "[3]; Example 20, Fluorouracil (5-Fu) intraperitoneal injection 125 mg/kg single, CDK inhibitor oral 150 mg/kg single 14 h before, cycle 10 days", "value": 70, "unit": "%"}, {"measurement": "Relative remission rate (%)", "setting": "[3]; Example 21, Fluorouracil (5-Fu) intraperitoneal injection 125 mg/kg single, CDK inhibitor oral 150 mg/kg single 16 h before, cycle 10 days", "value": 60, "unit": "%"}, {"measurement": "Relative remission rate (%)", "setting": "[3]; Example 22, Fluorouracil (5-Fu) intraperitoneal injection 125 mg/kg single, CDK inhibitor oral 150 mg/kg single 18 h before, cycle 10 days", "value": 60, "unit": "%"}, {"measurement": "Relative remission rate (%)", "setting": "[3]; Example 23, Fluorouracil (5-Fu) intraperitoneal injection 125 mg/kg single, CDK inhibitor oral 150 mg/kg single 20 h before, cycle 10 days", "value": 50, "unit": "%"}, {"measurement": "Relative remission rate (%)", "setting": "[3]; Example 24, Fluorouracil (5-Fu) intraperitoneal injection 125 mg/kg single, CDK inhibitor oral 150 mg/kg single 22 h before, cycle 10 days", "value": 40, "unit": "%"}, {"measurement": "Relative remission rate (%)", "setting": "[3]; Example 25, Fluorouracil (5-Fu) intraperitoneal injection 125 mg/kg single, CDK inhibitor oral 150 mg/kg single 24 h before, cycle 10 days", "value": 40, "unit": "%"}, {"measurement": "Relative remission rate (%)", "setting": "[3]; Example 26, Fluorouracil (5-Fu) intraperitoneal injection 125 mg/kg single, CDK inhibitor oral 150 mg/kg single 48 h before, cycle 10 days", "value": 0, "unit": "%"}, {"measurement": "Relative remission rate (%)", "setting": "[3]; Example 44, Fluorouracil (5-Fu) oral administration 250 mg/kg single, CDK inhibitor oral 125 mg/kg single 4 h before, cycle 10 days", "value": 60, "unit": "%"}, {"measurement": "Relative remission rate (%)", "setting": "[3]; Example 88, Oxaliplatin intravenous injection 17.5 mg/kg single, CDK inhibitor oral 150 mg/kg single 6 h before, cycle 8 days", "value": 50, "unit": "%"}, {"measurement": "Relative remission rate (%)", "setting": "[3]; Example 129, Irinotecan (CPT-11) intravenous injection 200 mg/kg single, CDK inhibitor oral 200 mg/kg single 14 h before, cycle 7 days", "value": 60, "unit": "%"}, {"measurement": "Relative remission rate (%)", "setting": "[3]; Example 166, Docetaxel (DTX) intramuscular injection 20 mg/kg single, CDK inhibitor oral 150 mg/kg single 5 h before, cycle 8 days", "value": 80, "unit": "%"}, {"measurement": "Relative remission rate (%)", "setting": "[3]; Example 228, Etoposide 60 mg/kg and Carboplatin 5 mg/kg intraperitoneal injection single, CDK inhibitor oral 150 mg/kg single, 12 h before, 10 days", "value": 60, "unit": "%"}]}
